Test results taken from publication PMC6021502, “Cannabigerol Action at Cannabinoid CB1 and CB2 Receptors and at CB1–CB2 Heteroreceptor Complexes” (Frontiers in Pharmacology, 2018).
Like-named read-outs stand apart in the source and are kept apart here.

Assays:
[1] = tested on: T1, CB1R and CB2R (CB1–CB2 heteroreceptor complexes); experiment: Label-free dynamic mass redistribution (DMR) in HEK-293T cells co-expressing both receptors; type: cell-based, human
T1 construct: expressed in transfected cells; host or cells: HEK-293T, transient co-transfection (PEI)
Description: (§1) HEK-293T cells were grown in DMEM medium (Gibco, Paisley, Scotland, United Kingdom) supplemented with 2 mM L-glutamine, 100 U/mL penicillin/streptomycin, MEM Non-Essential Amino Acids Solution (1/100) and 5% (v/v) heat inactivated Foetal Bovine Serum (FBS) (Invitrogen, Paisley, Scotland, United Kingdom). […] Cells were transiently transfected with the PEI (Polyethylenimine, Sigma, St. Louis, MO, United States) method as previously described ([Medrano et al., 2017]; [Navarro et al., 2018b]) and used for functional assays 48 h later (unless otherwise stated).
Cell mass redistribution induced upon receptor activation was detected by illuminating the underside of a biosensor with polychromatic light and measuring the changes in the wavelength of the reflected monochromatic light. The magnitude of this wavelength shift (in picometers) is directly proportional to the amount of DMR. […] Hereafter, the sensor plate was scanned and a baseline optical signature was recorded for 10 min before adding 10 μL of CBG for 30 min followed by the addition of 10 μL of specific agonists; all test compounds were dissolved in assay buffer. The cell signaling signature was determined using an EnSpire® Multimode Plate Reader (PerkinElmer, Waltham, MA, United States) by a label-free technology. Then, DMR responses were monitored for at least 5,000 s. Results were analyzed using EnSpire Workstation Software v 4.10.

5HT1A receptor = tested on: 5HT1A receptor; parameters: method as in Cascio et al., 2010; conditions: stimulation by 1 μM 8-OH-DPAT; ref Cascio et al., 2010; cited from earlier work
[2] = tested on: T1, CB1R and CB2R (CB1–CB2 heteroreceptor complexes); experiment: β-arrestin 2 recruitment (BRET) in HEK-293T cells co-expressing both receptors; type: cell-based, human
Description: as §1
Arrestin recruitment was determined as previously described ([Medrano et al., 2017]; [Navarro et al., 2018b]). Briefly, BRET experiments were performed in HEK-293T cells 48 h after transfection with the cDNA corresponding to the CB2R-YFP or CB1R-YFP and 1 μg cDNA corresponding to β-arrestin 2-Rluc. […] After 1 min of adding coelenterazine H, BRET between β-arrestin 2-Rluc and receptor-YFP was determined and quantified. The readings were collected using a Mithras LB 940 (Berthold Technologies, Bad Wildbad, Germany) that allows the integration of the signals detected in the short-wavelength filter at 485 nm and the long-wavelength filter at 530 nm. To quantify protein-RLuc expression luminescence readings were also performed 10 min of adding 5 μM coelenterazine H.

human CB2 receptor = molecular target: T2, human CB2 receptor (Homo sapiens, UniProt P34972); experiment: [3H]-CP-55940 competition binding, CHO membranes; conditions: radioligand 0.3 nM [3H]-CP-55940, CHO membranes
T2 construct: expressed in transfected cells; membranes
T2 sequence (P34972 whole entry): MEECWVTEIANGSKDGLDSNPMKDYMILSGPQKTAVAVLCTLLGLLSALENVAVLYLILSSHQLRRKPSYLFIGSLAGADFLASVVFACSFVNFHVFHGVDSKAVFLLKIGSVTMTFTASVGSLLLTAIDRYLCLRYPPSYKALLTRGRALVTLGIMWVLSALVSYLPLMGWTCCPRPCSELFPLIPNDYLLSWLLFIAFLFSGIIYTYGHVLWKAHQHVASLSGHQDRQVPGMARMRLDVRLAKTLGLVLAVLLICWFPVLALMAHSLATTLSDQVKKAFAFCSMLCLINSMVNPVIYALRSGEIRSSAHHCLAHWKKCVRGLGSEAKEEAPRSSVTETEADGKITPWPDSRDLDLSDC

TRPV1 = tested on: TRPV1; parameters: method as in De Petrocellis et al., 2011; conditions: ref De Petrocellis et al., 2011; read-out: EC50, agonist of TRPV1; cited from earlier work
CB2R [3] = tested on: T3, CB2R; experiment: Label-free dynamic mass redistribution (DMR) in HEK-293T cells; type: cell-based, human
T3 construct: expressed in transfected cells; host or cells: HEK-293T, transient transfection (PEI)
Description: as §1
(§2) Cell mass redistribution induced upon receptor activation was detected by illuminating the underside of a biosensor with polychromatic light and measuring the changes in the wavelength of the reflected monochromatic light. The magnitude of this wavelength shift (in picometers) is directly proportional to the amount of DMR. HEK-293T cells were seeded in 384-well sensor microplates to obtain 70–80% confluent monolayers constituted by approximately 10,000 cells per well. Previous to the assay, cells were washed twice with assay buffer (HBSS with 20 mM HEPES, pH 7.15) and incubated for 2 h with assay-buffer containing 0.1% DMSO (24°C, 30 μL/well). Hereafter, the sensor plate was scanned and a baseline optical signature was recorded for 10 min before adding 10 μL of CBG for 30 min followed by the addition of 10 μL of specific agonists; all test compounds were dissolved in assay buffer. The cell signaling signature was determined using an EnSpire® Multimode Plate Reader (PerkinElmer, Waltham, MA, United States) by a label-free technology. Then, DMR responses were monitored for at least 5,000 s. Results were analyzed using EnSpire Workstation Software v 4.10.

CB1R [4] = tested on: T4, CB1R; experiment: as above; type: cell-based, human
T4 construct: expressed in transfected cells; host or cells: HEK-293T, transient transfection (PEI)
Description: as §1, §2

macrophages = tested on: macrophages; parameters: method as in Giacoppo et al., 2017; conditions: in vitro; blocked by AM630, not by SR141716A; ref Giacoppo et al., 2017; cited from earlier work
CB2R [5] = tested on: T3, CB2R; experiment: β-arrestin 2 recruitment (BRET) in HEK-293T cells; type: cell-based, human
Description: as §1
(§3) Arrestin recruitment was determined as previously described ([Medrano et al., 2017]; [Navarro et al., 2018b]). Briefly, BRET experiments were performed in HEK-293T cells 48 h after transfection with the cDNA corresponding to the CB2R-YFP or CB1R-YFP and 1 μg cDNA corresponding to β-arrestin 2-Rluc. Cells (20 μg protein) were distributed in 96-well microplates (Corning 3600, white plates with white bottom) and were incubated with CBG for 15 min and stimulated with the agonist for 10 min prior the addition of 5 μM coelenterazine H (Molecular Probes, Eugene, OR, United States). After 1 min of adding coelenterazine H, BRET between β-arrestin 2-Rluc and receptor-YFP was determined and quantified. The readings were collected using a Mithras LB 940 (Berthold Technologies, Bad Wildbad, Germany) that allows the integration of the signals detected in the short-wavelength filter at 485 nm and the long-wavelength filter at 530 nm. To quantify protein-RLuc expression luminescence readings were also performed 10 min of adding 5 μM coelenterazine H.

CB1R [6] = tested on: T4, CB1R; experiment: β-arrestin 2 recruitment (BRET) in HEK-293T cells; type: cell-based, human
Description: as §1, §3

TRPV2 = tested on: TRPV2; parameters: method as in De Petrocellis et al., 2011; conditions: ref De Petrocellis et al., 2011; read-out: EC50, agonist of TRPV2; cited from earlier work
human CB1 receptor = molecular target: T5, human CB1 receptor (Homo sapiens, UniProt P21554); experiment: biochemical; type: binding; conditions: radioligand 0.3 nM [3H]-CP-55940, CHO membranes
T5 construct: expressed in transfected cells; membranes
T5 sequence (P21554 whole entry): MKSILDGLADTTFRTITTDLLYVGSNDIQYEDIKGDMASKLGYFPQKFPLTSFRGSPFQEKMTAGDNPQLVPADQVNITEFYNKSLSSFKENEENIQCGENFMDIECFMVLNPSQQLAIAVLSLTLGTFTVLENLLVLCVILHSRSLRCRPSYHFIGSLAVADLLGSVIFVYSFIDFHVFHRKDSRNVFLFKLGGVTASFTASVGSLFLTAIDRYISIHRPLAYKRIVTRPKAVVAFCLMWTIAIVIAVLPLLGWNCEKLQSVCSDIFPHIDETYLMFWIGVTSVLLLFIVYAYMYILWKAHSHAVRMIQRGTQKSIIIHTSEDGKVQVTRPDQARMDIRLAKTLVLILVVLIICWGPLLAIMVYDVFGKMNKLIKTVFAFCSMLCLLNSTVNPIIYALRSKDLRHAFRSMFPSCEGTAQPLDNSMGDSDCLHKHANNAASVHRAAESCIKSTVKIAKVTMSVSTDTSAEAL

CB2R [7] = conditions: cited from earlier work
PPARγ = molecular target: PPARγ; parameters: method as in Granja et al., 2012; Nadal et al., 2017; conditions: ref Granja et al., 2012; Nadal et al., 2017; cited from earlier work
TRPM8 channels = tested on: TRPM8 channels; parameters: method as in De Petrocellis et al., 2011; conditions: ref De Petrocellis et al., 2011; read-out: IC50, antagonist of TRPM8 channels; cited from earlier work
[8] = molecular target: T6, CB2R in a CB1–CB2 receptor heteromer context (Homo sapiens, UniProt P34972); experiment: Homogeneous HTRF competition binding in living HEK-293T cells expressing SNAP-CB2R and CB1R; conditions: 20 nM fluorescent ligand, read-out: Ki, HTRF competition of fluorophore-conjugated CM-157 in the presence of CB1R
T6 construct: host or cells: HEK-293T, transient co-transfection (PEI)
T6 sequence (P34972 whole entry): as the sequence (P34972 whole entry) above
T6 sequence (P21554 whole entry partner): as the sequence (P21554 whole entry) above

[9] = 100 nM CBG pretreatment, cells co-expressing CB1R and CB2R
[10] = CBG alone, dose-effect, cells expressing CB1R and CB2R
[11] = CBG alone, 1 nM to 10 μM, CB2R-expressing cells
[12] = 100 nM or 1 μM CBG, 100 nM AEA or ACEA, CB1R
[13] = CBG alone, 1 nM to 10 μM, CB1R-expressing cells

CCCCCc1cc(O)c(C/C=C(\C)CCC=C(C)C)c(O)c1 [CBG, cannabigerol]
Effect on agonist actions on DMR read-outs [1, 9]: negative modulation of the ACEA effect on ERK1/2 phosphorylation and DMR, and of the AEA effect on DMR read-outs | DMR signal [1, 10]: additive | Effect on [35S]GTPγS binding upon 5HT1A stimulation (5HT1A receptor): able to antagonize | Effect on agonist actions on β-arrestin recruitment [2, 9]: negligible | β-arrestin recruitment [2, 10]: negative cross-talk was still evident | Ki (human CB2 receptor): 1.23 µM | EC50 (TRPV1): 1.3 µM | Effect on AEA and JWH133 effects on label-free DMR (CB2R [3]; 100 nM or 1 μM CBG pretreatment, 100 nM AEA or JWH133, CB2R): reduced the effects of AEA and JWH133 | DMR signal (CB2R [3]; [11]): small and similar to that exerted in CB1R-expressing cells | Effect on agonist-induced DMR (CB1R [4]; [12]): reduced the effect of the agonists | DMR signal (CB1R [4]; [13]): slight effect | Protection of macrophages against oxidative stress (macrophages): protection of macrophages against oxidative stress | Effect on β-arrestin recruitment induced by agonists (CB2R [5]; 100 nM or 1 μM CBG, 100 nM AEA or JWH133, CB2R): did not affect | β-arrestin recruitment (CB2R [5]; [11]): noteworthy | Effect on agonist-induced β-arrestin recruitment (CB1R [6]; [12]): unable to modify | β-arrestin recruitment (CB1R [6]; [13]): small increase | EC50 (TRPV2): 1.7 µM | Ki (human CB1 receptor): 1.05 µM | Ki (CB2R [7]; CHO cells expressing the human CB2R, preliminary results, ref Gauson et al., 2007, Pertwee, 2008): 0.3 to 0.5 µM | Ki (CB2R [7]; CHO cells expressing the human receptor, ref Cascio et al., 2010): 2.6 µM | Ki (PPARγ): 11.7 µM | IC50 (TRPM8 channels): 0.16 µM | Ki [8]: 0.056 µM
